Measurements from patent publication US9113629B2, “4-amino-6-(4-substituted-phenyl)-picolinates and 6-amino-2-(4-substituted-phenyl)-pyrimidine-4-carboxylates and their use as herbicides” (DOW AGROSCIENCES LLC, priority 2013, dated 2015).
Where two headings read alike, the source gives them in different places.

Key:
[1] = system: Key Grass and Sedge Weeds as well as Grass Crops; experiment: Post-emergent Test II herbicidal activity (Table 6); assay type: in vivo; details: post-emergence, 336 h; for pest or weed control at 70 g/ha: application rate 70 g ai/ha; for pest or weed control at 140 g/ha: application rate 140 g ai/ha
In short: (§1)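 Scoring: visual, 0–100% injury at 14 d versus untreated. Treatment: overhead track spray, 187 L/ha, onto plants at the first–second true leaf stage. Growth: greenhouse, ~15 h light, 23–29 °C day, 22–28 °C night.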

[2] = system: Key Broadleaf Weed and Crop Species; experiment: Post-emergent Test II herbicidal activity (Table 5); assay type: in vivo; details: post-emergence, 336 h, post-emergent, 14 days after application; for pest or weed control at 70 g/ha: 70 g ai/ha; for pest or weed control at 140 g/ha: 140 g ai/ha
In short: as §1

[3] = CYPES: yellow nutsedge (Cyperus esculentus), read-out: Visual Growth Reduction (%) 14 Days After Application, CYPES
[4] = DIGSA: crabgrass (Digitaria sanguinalis), read-out: Visual Growth Reduction (%) 14 Days After Application, DIGSA
[5] = ECHCG: barnyardgrass (Echinochloa crus-galli), read-out: Visual Growth Reduction (%) 14 Days After Application, ECHCG
[6] = ORYSA: rice (Oryza sativa), read-out: Visual Growth Reduction (%) 14 Days After Application, ORYSA
[7] = SETFA: giant foxtail (Setaria faberi), read-out: Visual Growth Reduction (%) 14 Days After Application, SETFA
[8] = SORVU: grain sorghum (Sorghum vulgare), read-out: Visual Growth Reduction (%) 14 Days After Application, SORVU
[9] = TRZSS (wheat, Triticum aestivum), read-out: Visual Growth Reduction (%) 14 Days After Application, TRZSS
[10] = ZEAMX: maize, corn (Zea mays), read-out: Visual Growth Reduction (%) 14 Days After Application, ZEAMX
[11] = ABUTH: velvetleaf (Abutilon theophrasti), read-out: Visual Growth Reduction (%) 14 Days After Application ABUTH
[12] = AMARE: redroot pigweed (Amaranthus retroflexus), read-out: Visual Growth Reduction (%) 14 Days After Application AMARE
[13] = BRSNN: oilseed-rape, canola (Brassica napus), read-out: Visual Growth Reduction (%) 14 Days After Application BRSNN
[14] = CHEAL: lambsquarters (Chenopodium album), read-out: Visual Growth Reduction (%) 14 Days After Application CHEAL
[15] = EPHHL: wild poinsettia (Euphorbia heterophylla), read-out: Visual Growth Reduction (%) 14 Days After Application EPHHL
[16] = HELAN: sunflower (Helianthus annuus), read-out: Visual Growth Reduction (%) 14 Days After Application HELAN
[17] = VIOTR: wild pansy (Viola tricolor), read-out: Visual Growth Reduction (%) 14 Days After Application VIOTR

COC(=O)c1nc(-c2c(F)cc(I)c(F)c2F)cc(N)c1Cl [Compound 90]
melting point: 176.2 to 178.7 °C | pest or weed control at 70 g/ha [1, 3]: 95 to 100% | pest or weed control at 140 g/ha [1, 3]: 95 to 100% | pest or weed control at 70 g/ha [1, 4]: 85 to 94% | pest or weed control at 140 g/ha [1, 4]: 75 to 84% | pest or weed control at 70 g/ha [1, 5]: 85 to 94% | pest or weed control at 140 g/ha [1, 5]: 85 to 94% | pest or weed control at 70 g/ha [1, 6]: 30 to 44% | pest or weed control at 140 g/ha [1, 6]: 0 to 29% | pest or weed control at 70 g/ha [1, 7]: 85 to 94% | pest or weed control at 140 g/ha [1, 7]: 85 to 94% | pest or weed control at 70 g/ha [1, 8]: 95 to 100% | pest or weed control at 140 g/ha [1, 8]: 95 to 100% | pest or weed control at 70 g/ha [1, 9]: 30 to 44% | pest or weed control at 140 g/ha [1, 9]: 45 to 59% | pest or weed control at 70 g/ha [1, 10]: 60 to 74% | pest or weed control at 140 g/ha [1, 10]: 60 to 74% | pest or weed control at 70 g/ha [2, 11]: 85 to 94% | pest or weed control at 140 g/ha [2, 11]: 85 to 94% | pest or weed control at 70 g/ha [2, 12]: 95 to 100% | pest or weed control at 140 g/ha [2, 12]: 95 to 100% | pest or weed control at 70 g/ha [2, 13]: 95 to 100% | pest or weed control at 140 g/ha [2, 13]: 95 to 100% | pest or weed control at 70 g/ha [2, 14]: 95 to 100% | pest or weed control at 140 g/ha [2, 14]: 95 to 100% | pest or weed control at 70 g/ha [2, 15]: 95 to 100% | pest or weed control at 140 g/ha [2, 15]: 95 to 100% | pest or weed control at 70 g/ha [2, 16]: 30 to 44% | pest or weed control at 140 g/ha [2, 16]: 75 to 84% | pest or weed control at 70 g/ha [2, 17]: 95 to 100% | pest or weed control at 140 g/ha [2, 17]: 95 to 100%
